US9113629B2, “4-amino-6-(4-substituted-phenyl)-picolinates and 6-amino-2-(4-substituted-phenyl)-pyrimidine-4-carboxylates and their use as herbicides” (DOW AGROSCIENCES LLC, priority 2013, dated 2015)
Read-outs that look alike come from different tables or passages of the source.

Legend:
[1] = test system: Key Broadleaf Weed and Crop Species; experiment: Post-emergent Test II herbicidal activity (Table 5); assay type: in vivo; details: post-emergence, 336 h, post-emergent, 14 days after application; for pest or weed control at 66 g/ha: 66 g ai/ha; for pest or weed control at 132 g/ha: 132 g ai/ha
How it was run: (§1)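 Visual injury ratings (0 = no injury, 100 = complete kill) were taken 14 d after treatment, relative to untreated plants. Seedlings at the first–second true leaf stage received overhead spray at 187 L/ha; the highest rate was serially diluted to ½×, ¼×, ⅛× and 1/16×.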

[2] = test system: Key Grass and Sedge Weeds as well as Grass Crops; experiment: Post-emergent Test II herbicidal activity (Table 6); assay type: in vivo; details: post-emergence, 336 h; for pest or weed control at 66 g/ha: application rate 66 g ai/ha; for pest or weed control at 132 g/ha: application rate 132 g ai/ha
How it was run: as §1

[3] = ABUTH: velvetleaf (Abutilon theophrasti), read-out: Visual Growth Reduction (%) 14 Days After Application ABUTH
[4] = AMARE: redroot pigweed (Amaranthus retroflexus), read-out: Visual Growth Reduction (%) 14 Days After Application AMARE
[5] = BRSNN: oilseed-rape, canola (Brassica napus), read-out: Visual Growth Reduction (%) 14 Days After Application BRSNN
[6] = CHEAL: lambsquarters (Chenopodium album), read-out: Visual Growth Reduction (%) 14 Days After Application CHEAL
[7] = EPHHL: wild poinsettia (Euphorbia heterophylla), read-out: Visual Growth Reduction (%) 14 Days After Application EPHHL
[8] = HELAN: sunflower (Helianthus annuus), read-out: Visual Growth Reduction (%) 14 Days After Application HELAN
[9] = VIOTR: wild pansy (Viola tricolor), read-out: Visual Growth Reduction (%) 14 Days After Application VIOTR
[10] = Triticum aestivum, TRZSS (wheat), read-out: Visual Growth Reduction (%) 14 Days After Application, TRZSS
[11] = CYPES: yellow nutsedge (Cyperus esculentus), read-out: Visual Growth Reduction (%) 14 Days After Application, CYPES
[12] = DIGSA: crabgrass (Digitaria sanguinalis), read-out: Visual Growth Reduction (%) 14 Days After Application, DIGSA
[13] = ECHCG: barnyardgrass (Echinochloa crus-galli), read-out: Visual Growth Reduction (%) 14 Days After Application, ECHCG
[14] = ORYSA: rice (Oryza sativa), read-out: Visual Growth Reduction (%) 14 Days After Application, ORYSA
[15] = SETFA: giant foxtail (Setaria faberi), read-out: Visual Growth Reduction (%) 14 Days After Application, SETFA
[16] = SORVU: grain sorghum (Sorghum vulgare), read-out: Visual Growth Reduction (%) 14 Days After Application, SORVU
[17] = ZEAMX: maize, corn (Zea mays), read-out: Visual Growth Reduction (%) 14 Days After Application, ZEAMX

Structure (SMILES): COC(=O)c1nc(-c2ccc(I)c(F)c2)c(C)c(N)c1Cl [Compound 79, Methyl 4-amino-3-chloro-6-(3-fluoro-4-iodophenyl)-5-methylpicolinate]
- pest or weed control at 66 g/ha [1, 3]: 85 to 94%
- pest or weed control at 132 g/ha [1, 3]: 95 to 100%
- pest or weed control at 66 g/ha [1, 4]: 60 to 74%
- pest or weed control at 132 g/ha [1, 4]: 75 to 84%
- pest or weed control at 66 g/ha [1, 5]: 85 to 94%
- pest or weed control at 132 g/ha [1, 5]: 85 to 94%
- pest or weed control at 66 g/ha [1, 6]: 95 to 100%
- pest or weed control at 132 g/ha [1, 6]: 95 to 100%
- pest or weed control at 66 g/ha [1, 7]: 0 to 29%
- pest or weed control at 132 g/ha [1, 7]: 0 to 29%
- pest or weed control at 66 g/ha [1, 8]: 95 to 100%
- pest or weed control at 132 g/ha [1, 8]: 95 to 100%
- pest or weed control at 66 g/ha [1, 9]: 0 to 29%
- pest or weed control at 132 g/ha [1, 9]: 0 to 29%
- pest or weed control at 66 g/ha [2, 10]: 0 to 29%
- pest or weed control at 132 g/ha [2, 10]: 30 to 44%
- pest or weed control at 66 g/ha [2, 11]: 95 to 100%
- pest or weed control at 132 g/ha [2, 11]: 95 to 100%
- pest or weed control at 66 g/ha [2, 12]: 60 to 74%
- pest or weed control at 132 g/ha [2, 12]: 60 to 74%
- pest or weed control at 66 g/ha [2, 13]: 60 to 74%
- pest or weed control at 132 g/ha [2, 13]: 60 to 74%
- pest or weed control at 66 g/ha [2, 14]: 0 to 29%
- pest or weed control at 132 g/ha [2, 14]: 0 to 29%
- pest or weed control at 66 g/ha [2, 15]: 75 to 84%
- pest or weed control at 132 g/ha [2, 15]: 75 to 84%
- pest or weed control at 66 g/ha [2, 16]: 60 to 74%
- pest or weed control at 132 g/ha [2, 16]: 75 to 84%
- pest or weed control at 66 g/ha [2, 17]: 60 to 74%
- pest or weed control at 132 g/ha [2, 17]: 60 to 74%
